Test systems include K-562 leukemia; NCI-H522 lung; ACHN renal; MCF7 breast; NCI-H23 lung; UACC-62 melanoma; UO-31 renal; U251 CNS; HCC-2998 colon; IGROV1 ovarian.
Holding throughout (assay): NCI anticancer screen, dose series, 48 h

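Assay format: 96-well plates, 48-hour exposure. GI50 is the concentration that inhibits growth by half. Definition used: TGI = concentration required for complete inhibition of growth.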 Bounds are passed on as bounds.

Turning to `C[C@]12CC[C@@H]3c4ccc(O)cc4CC[C@H]3[C@@H]1CC(Cc1ccccc1)(Cc1ccccc1)C2=O`, the GI50 was 16.2 µM with K-562 leukemia; 16.6 µM in the test with NCI-H522 lung; 14.5 µM with ACHN renal; 15.6 µM in the test on MCF7 breast; 14.3 µM in the test on NCI-H23 lung; 15.1 µM in the test on UACC-62 melanoma. Further, the GI50 is 15.8 µM in the test on UO-31 renal, 16 µM in the test with U251 CNS, 4.04 µM in the test with HCC-2998 colon and 20.3 µM in the test with IGROV1 ovarian. Moreover, the TGI is > 100 µM in the test on K-562 leukemia; 36.3 µM in the test on NCI-H522 lung; 27.9 µM in the test with ACHN renal; 46.8 µM in the test with MCF7 breast; 28.2 µM in the test with NCI-H23 lung; 29.3 µM in the test on UACC-62 melanoma. Besides, the TGI in the test with UO-31 renal stood at 31.3 µM; in the test on U251 CNS, 31.8 µM; with HCC-2998 colon it was 14.2 µM; with IGROV1 ovarian, 41.5 µM.
Take `CC[C@H](C)[C@H](NC(=O)c1ncccn1)C(=O)N(C)[C@H](C[C@@H](OC(C)=O)c1nc(C(=O)N[C@@H](Cc2ccccc2)C[C@H](C)C(=O)OC)cs1)C(C)C`: the GI50 with K-562 leukemia is 0.935 µM; in the test on NCI-H522 lung it was 1.01 µM; in the test on ACHN renal, 4.07 µM; in the test on MCF7 breast, 0.924 µM; in the test on NCI-H23 lung, 5.4 µM; with UACC-62 melanoma, 0.848 µM. Moreover, the GI50 was 6.01 µM with UO-31 renal, 2.39 µM with U251 CNS, 6.48 µM in the test on HCC-2998 colon and 1.38 µM in the test on IGROV1 ovarian. Further, the TGI in the test with K-562 leukemia is > 25 µM; with NCI-H522 lung, 7.37 µM; in the test with ACHN renal, > 25 µM; in the test with MCF7 breast, > 25 µM; with NCI-H23 lung it was > 25 µM; in the test on UACC-62 melanoma it was > 25 µM. The TGI with UO-31 renal, in the test with U251 CNS, in the test with HCC-2998 colon and with IGROV1 ovarian was > 25 µM each time.
On to `Cc1cc(C)c([I+]c2c(C)cc(C)cc2C)c(C)c1`, for which the GI50 in the test with K-562 leukemia is 0.319 µM; with NCI-H522 lung it was 0.351 µM; with ACHN renal it was 1.17 µM; with MCF7 breast, 0.325 µM; in the test with NCI-H23 lung, 0.334 µM; in the test with UACC-62 melanoma, 0.339 µM. Also, the GI50 in the test with UO-31 renal is 1.57 µM; in the test on U251 CNS, 0.32 µM; in the test with HCC-2998 colon, 0.415 µM. Moreover, the TGI with K-562 leukemia was found to be 1.43 µM; in the test with NCI-H522 lung it was 1.45 µM; in the test on ACHN renal it was 2.47 µM; in the test on MCF7 breast, 1.46 µM; with NCI-H23 lung, 1.83 µM; with UACC-62 melanoma it was 1.5 µM. The results for the TGI in the test with UO-31 renal, in the test on U251 CNS and with HCC-2998 colon were 3.7 µM, 1.38 µM and 1.73 µM, respectively.
With `COc1cc(OCCCN2CCCC2)ccc1Nc1ncc(Cl)c(Nc2ccccc2P(C)(C)=O)n1`, the GI50 with K-562 leukemia was 4.43 µM; in the test with NCI-H522 lung it was 0.811 µM; in the test with ACHN renal it was 2.46 µM; in the test on MCF7 breast, 0.867 µM; with NCI-H23 lung it was 1.98 µM; with UACC-62 melanoma it was 2.43 µM. Further, the GI50 is 2.28 µM in the test with UO-31 renal, 5.43 µM in the test on U251 CNS, 2.65 µM in the test with HCC-2998 colon and 1.41 µM with IGROV1 ovarian. For the same compound, the TGI came to 28.5 µM with K-562 leukemia; 3.95 µM in the test on NCI-H522 lung; 16.7 µM in the test with ACHN renal; 19.3 µM with MCF7 breast; 13.2 µM with NCI-H23 lung; 12.9 µM with UACC-62 melanoma. Also, the TGI in the test with UO-31 renal was 6.31 µM; in the test with U251 CNS, 19.8 µM; with HCC-2998 colon, 25.7 µM; in the test with IGROV1 ovarian it was 22.5 µM.
Regarding `CC1(C)N=C(N)N=C(N)N1c1cccc(CCCCc2ccc(Cl)c(S(=O)(=O)F)c2)c1`, the GI50 with K-562 leukemia is 0.521 µM; with NCI-H522 lung, 1.26 µM; in the test on ACHN renal, 20.9 µM; in the test with MCF7 breast it was 3.28 µM; in the test with NCI-H23 lung it was 2.83 µM; with UACC-62 melanoma it was 0.732 µM. Moreover, the GI50 in the test on UO-31 renal was > 100 µM; in the test on U251 CNS it was 0.655 µM; in the test with HCC-2998 colon, 1.92 µM; in the test with IGROV1 ovarian, 0.66 µM. For the same compound, the TGI in the test with K-562 leukemia is 15.2 µM; in the test with NCI-H522 lung, 18.8 µM; with ACHN renal it was > 100 µM; with MCF7 breast, 17.7 µM; in the test with NCI-H23 lung it was 18.1 µM; with UACC-62 melanoma, 17.2 µM. Also, the TGI in the test with UO-31 renal is > 100 µM; with U251 CNS it was 21.3 µM; with HCC-2998 colon, 16 µM; in the test on IGROV1 ovarian it was 18.8 µM.
Turning to `CC1(C)CC[C@]2(C(=O)NCCNCCN)CC[C@]3(C)C(=CC[C@@H]4[C@@]5(C)CCC(=O)C(C)(C)[C@@H]5CC[C@]43C)[C@@H]2C1`, the GI50 with K-562 leukemia is 2.74 µM; with NCI-H522 lung it was 1.78 µM; in the test on ACHN renal, 1.77 µM; in the test on MCF7 breast, 1.55 µM; in the test with NCI-H23 lung, 1.9 µM; in the test on UACC-62 melanoma, 1.69 µM. Moreover, the GI50 in the test on UO-31 renal is 1.65 µM; in the test with U251 CNS it was 1.79 µM; in the test on HCC-2998 colon it was 1.73 µM; in the test on IGROV1 ovarian it was 1.69 µM. For the same compound, the TGI in the test on K-562 leukemia is > 100 µM; in the test on NCI-H522 lung it was 3.91 µM; in the test on ACHN renal, 3.2 µM; with MCF7 breast, 3.08 µM; in the test on NCI-H23 lung, 3.71 µM; in the test on UACC-62 melanoma, 3.14 µM. In addition, the TGI in the test on UO-31 renal was 3.06 µM; in the test on U251 CNS, 3.46 µM; in the test with HCC-2998 colon, 3.18 µM; with IGROV1 ovarian, 3.11 µM.
As for `O=c1oc2ccc(F)cc2c(=O)n1-c1ccc(I)cc1F`, the GI50 in the test on K-562 leukemia is 0.397 µM; in the test with NCI-H522 lung, 0.322 µM; with ACHN renal, 0.43 µM; with MCF7 breast, 0.762 µM; in the test with NCI-H23 lung it was 0.311 µM; in the test with UACC-62 melanoma, 0.293 µM. In addition, the GI50 is 0.241 µM with UO-31 renal, 0.469 µM in the test with U251 CNS, 3.1 µM with HCC-2998 colon and 0.397 µM in the test on IGROV1 ovarian. Besides, the TGI with K-562 leukemia was > 100 µM; with ACHN renal, 7.39 µM; in the test with MCF7 breast, 9.03 µM; in the test on NCI-H23 lung it was 1.59 µM; in the test on UACC-62 melanoma, 1.1 µM; in the test on UO-31 renal, 1.46 µM. Further, the TGI in the test with U251 CNS was > 100 µM; in the test with HCC-2998 colon it was 9.85 µM; with IGROV1 ovarian, 15.6 µM.

(Values after PubChem BioAssay (NCI).)
